In this test the target is T1, LRRK2 (endogenous, HiBit tagged) (Homo sapiens, UniProt Q5S007).
T1 construct: endogenous in cells; host or cells: HEK293 cells with HiBit knock-in at the endogenous LRRK2 locus, stably expressing firefly luciferase
Put plainly: Endogenous LRRK2 degradation assay, endogenous gene C-terminally HiBit-tagged in HEK293 cells (Nano-Glo Dual Luciferase). The test is classed as cell-based. In outline:
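LRRK2-HiBit quantified via Nano-Glo Dual Luciferase in HEK293 knock-in cells co-expressing firefly luciferase, after 24 h exposure to compound (1 μM final top, 1:3, 11 points). Values normalised to DMSO median per plate and curve-fitted; Alamar Blue viability run alongside.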

The mark [1] stands for this setting: endogenous HiBit-tagged LRRK2 in HEK293 cells, 24 hours treatment, read-out: Endogenous WT DC50.
[2] abbreviates: endogenous HiBit-tagged LRRK2 in HEK293 cells, 24 hours treatment, read-out: Endogenous WT Dmax.
[3] abbreviates: endogenous HiBit-tagged LRRK2 in HEK293 cells, 24 hours treatment, read-out: *Endogenous WT DC50.
Setting [4] is: endogenous HiBit-tagged LRRK2 in HEK293 cells, 24 hours treatment, read-out: **Endogenous WT Dmax (%).

Each structure is given as a SMILES string. Like-named read-outs stand apart in the source and are kept apart here.

T1 sequence (Q5S007 whole entry): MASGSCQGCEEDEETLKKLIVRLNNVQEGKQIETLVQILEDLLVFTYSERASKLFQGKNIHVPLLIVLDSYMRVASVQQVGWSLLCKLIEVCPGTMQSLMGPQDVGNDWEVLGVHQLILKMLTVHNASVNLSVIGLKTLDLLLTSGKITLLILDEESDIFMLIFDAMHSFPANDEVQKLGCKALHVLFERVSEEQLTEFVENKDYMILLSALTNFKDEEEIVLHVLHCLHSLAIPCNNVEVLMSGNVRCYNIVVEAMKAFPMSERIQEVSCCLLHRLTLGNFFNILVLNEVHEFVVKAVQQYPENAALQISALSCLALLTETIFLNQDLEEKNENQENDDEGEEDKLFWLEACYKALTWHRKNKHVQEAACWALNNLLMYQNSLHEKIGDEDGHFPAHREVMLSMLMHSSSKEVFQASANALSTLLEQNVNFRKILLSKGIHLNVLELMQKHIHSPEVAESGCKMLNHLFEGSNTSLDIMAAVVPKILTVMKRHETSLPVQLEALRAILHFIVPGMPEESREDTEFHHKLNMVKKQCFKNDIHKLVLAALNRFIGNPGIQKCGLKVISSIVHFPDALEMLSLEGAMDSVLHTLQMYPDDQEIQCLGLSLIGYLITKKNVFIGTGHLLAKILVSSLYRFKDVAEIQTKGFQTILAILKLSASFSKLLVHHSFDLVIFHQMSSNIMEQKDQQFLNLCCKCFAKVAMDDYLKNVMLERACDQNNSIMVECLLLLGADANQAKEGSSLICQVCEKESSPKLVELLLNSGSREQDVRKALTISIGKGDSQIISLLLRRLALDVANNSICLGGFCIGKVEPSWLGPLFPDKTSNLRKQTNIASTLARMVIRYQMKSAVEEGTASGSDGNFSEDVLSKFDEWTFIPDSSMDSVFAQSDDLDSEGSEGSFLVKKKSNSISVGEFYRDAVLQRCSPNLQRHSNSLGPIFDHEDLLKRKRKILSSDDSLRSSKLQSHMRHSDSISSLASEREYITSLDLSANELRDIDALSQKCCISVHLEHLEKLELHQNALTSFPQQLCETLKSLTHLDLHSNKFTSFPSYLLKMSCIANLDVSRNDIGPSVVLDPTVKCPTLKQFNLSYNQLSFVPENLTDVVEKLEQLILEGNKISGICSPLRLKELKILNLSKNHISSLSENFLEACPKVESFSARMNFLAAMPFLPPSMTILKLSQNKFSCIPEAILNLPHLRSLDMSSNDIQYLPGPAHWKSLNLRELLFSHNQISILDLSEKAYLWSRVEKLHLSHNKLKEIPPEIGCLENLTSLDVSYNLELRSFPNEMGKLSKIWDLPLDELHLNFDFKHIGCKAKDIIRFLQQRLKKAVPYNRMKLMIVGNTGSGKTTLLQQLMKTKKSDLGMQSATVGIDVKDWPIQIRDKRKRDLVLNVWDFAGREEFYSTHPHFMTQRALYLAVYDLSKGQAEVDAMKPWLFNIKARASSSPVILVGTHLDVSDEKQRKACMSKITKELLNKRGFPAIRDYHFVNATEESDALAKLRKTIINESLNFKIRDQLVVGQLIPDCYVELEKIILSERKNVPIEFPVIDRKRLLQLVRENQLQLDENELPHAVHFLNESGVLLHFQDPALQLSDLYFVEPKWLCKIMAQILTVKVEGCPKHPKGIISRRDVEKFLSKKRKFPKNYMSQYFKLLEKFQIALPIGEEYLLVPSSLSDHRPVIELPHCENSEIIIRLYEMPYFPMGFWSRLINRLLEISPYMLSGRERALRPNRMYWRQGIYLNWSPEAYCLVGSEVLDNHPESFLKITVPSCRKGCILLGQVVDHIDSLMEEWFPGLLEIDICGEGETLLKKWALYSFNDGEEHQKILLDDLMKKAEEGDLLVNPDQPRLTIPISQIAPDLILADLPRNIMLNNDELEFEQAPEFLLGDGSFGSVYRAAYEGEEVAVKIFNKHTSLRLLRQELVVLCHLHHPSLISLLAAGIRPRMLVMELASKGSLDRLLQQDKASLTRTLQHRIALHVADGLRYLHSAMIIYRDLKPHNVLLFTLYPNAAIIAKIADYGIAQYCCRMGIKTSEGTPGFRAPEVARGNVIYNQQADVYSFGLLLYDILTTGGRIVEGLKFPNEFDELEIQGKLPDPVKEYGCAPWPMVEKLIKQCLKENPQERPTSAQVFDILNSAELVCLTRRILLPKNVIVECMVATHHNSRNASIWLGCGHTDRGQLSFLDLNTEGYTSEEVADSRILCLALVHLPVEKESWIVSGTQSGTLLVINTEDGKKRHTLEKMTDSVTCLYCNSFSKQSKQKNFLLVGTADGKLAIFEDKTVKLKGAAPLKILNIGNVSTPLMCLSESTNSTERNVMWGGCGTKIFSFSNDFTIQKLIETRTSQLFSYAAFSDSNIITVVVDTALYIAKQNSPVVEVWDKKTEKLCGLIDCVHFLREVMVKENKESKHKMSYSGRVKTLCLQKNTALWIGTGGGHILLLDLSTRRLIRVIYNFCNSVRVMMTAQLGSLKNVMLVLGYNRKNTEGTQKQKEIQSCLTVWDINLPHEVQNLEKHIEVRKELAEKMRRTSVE

For the compound `COc1c(N2CC3(CCN(CCOC4CCN(c5cc(-c6n[nH]c7ccc(OC8(C)CC8)cc67)ncn5)CC4)CC3(F)F)C2)ccc2c1CN(C1CCC(=O)NC1=O)C2=O` (stereo not shown) [Compound 357, 3-[5-(5,5-difluoro-7-{2-[(1-{6-[5-(1-methylcyclopropoxy)-1H-indazol-3-yl]pyrimidin-4-yl}piperidin-4-yl)oxy]ethyl}-2,7-diazaspiro[3.5]nonan-2-yl)-4-methoxy-1-oxo-2,3-dihydro-1H-isoindol-2-yl]piperidine-2,6-dione], under setting [1], the 50% degradation concentration (DC50) was under 0.01 µM. Also, the Dmax under setting [2] is 50 to 70%. For the compound `COc1c(N2CCC(CN3CCN(CC4CCN(c5cc(-c6n[nH]c7cc(F)c(OC8(C)CC8)cc67)ncn5)CC4)CC3(C)C)CC2)ccc2c1CN(C1CCC(=O)NC1=O)C2=O` (stereo not shown) [Compound 349, 3-{5-[4-({4-[(1-{6-[6-fluoro-5-(1-methylcyclopropoxy)-1H-indazol-3-yl]pyrimidin-4-yl}piperidin-4-yl)methyl]-2,2-dimethylpiperazin-1-yl}methyl)piperidin-1-yl]-4-methoxy-1-oxo-2,3-dihydro-1H-isoindol-2-yl}piperidine-2,6-dione], the DC50 under setting [3] was under 0.01 µM. With `COc1c(N2CC3(CCN([C@H]4C[C@H](OC5CCN(c6cc(-c7[nH]nc8ccc(OC9(C)CC9)cc78)ncn6)CC5)C4)CC3)C2)ccc2c1CN(C1CCC(=O)NC1=O)C2=O` (stereo partly shown) [Compound 344, 3-(4-methoxy-1-oxo-5-{7-[(1r,3r)-3-[(1-{6-[5-(1-methylcyclopropoxy)-2H-indazol-3-yl]pyrimidin-4-yl}piperidin-4-yl)oxy]cyclobutyl]-2,7-diazaspiro[3.5]nonan-2-yl}-2,3-dihydro-1H-isoindol-2-yl)piperidine-2,6-dione], the Dmax under setting [4] lay in the range of 50 to 70%. Also, the 50% degradation concentration (DC50) under setting [3] was under 0.01 µM. Regarding `COc1c(N2CCC(O[C@H]3CC[C@H](CN4CCN(c5cc(-c6[nH]nc7ccc(OC8(C)CC8)cc67)ncn5)CC4)CC3)CC2)ccc2c1CN(C1CCC(=O)NC1=O)C2=O` (stereo partly shown) [Compound 238, 3-[4-methoxy-1-oxo-5-(4-{[(1r,4r)-4-[(4-{6-[5-(1-methylcyclopropoxy)-2H-indazol-3-yl]pyrimidin-4-yl}piperazin-1-yl)methyl]cyclohexyl]oxy}piperidin-1-yl)-2,3-dihydro-1H-isoindol-2-yl]piperidine-2,6-dione], the 50% degradation concentration (DC50) under setting [1] was under 0.01 µM. For the same compound, the maximal degradation (Dmax) under setting [2] was 50 to 70%. Taken in the same sequence, the figures for `CC1(Oc2ccc3[nH]nc(-c4cc(N5CCC(COC6CCC7(CC6)CN(c6ccc8c(c6F)CN(C6CCC(=O)NC6=O)C8=O)C7)CC5)ncn4)c3c2)CC1` (stereo not shown) [Compound 372, 3-(4-fluoro-5-{7-[(1-{6-[5-(1-methylcyclopropoxy)-1H-indazol-3-yl]pyrimidin-4-yl}piperidin-4-yl)methoxy]-2-azaspiro[3.5]nonan-2-yl}-1-oxo-2,3-dihydro-1H-isoindol-2-yl)piperidine-2,6-dione] were under 0.01 µM and 50 to 70%. For the compound `CC1(Oc2cc3c(-c4cc(N5CCN(CC6(F)CCN(CC7CCN(c8cc9c(cc8F)C(=O)N(C8CCC(=O)NC8=O)C9)CC7)CC6)CC5)ncn4)[nH]nc3cc2F)CC1` (stereo not shown) [Compound 195, 3-[6-fluoro-5-[4-[[4-fluoro-4-[[4-[6-[6-fluoro-5-(1-methylcyclopropoxy)-2H-indazol-3-yl]pyrimidin-4-yl]piperazin-1-yl]methyl]-1-piperidyl]methyl]-1-piperidyl]-1-oxo-isoindolin-2-yl]piperidine-2,6-dione], the greatest degradation seen (Dmax) (endogenous HiBit-tagged LRRK2, HEK293 cells, 24 hours, read-out: **Endogenous WT Dmax (%)) was at least 70%. Also, the DC50 (endogenous HiBit-tagged LRRK2, HEK293 cells, 24 hours, read-out: *Endogenous WT DC50) is under 0.01 µM.

As to `CC1(Oc2ccc3n[nH]c(-c4cc(N5CCC(O[C@H]6C[C@H](N7CCC(c8ccc9c(c8F)CN(C8CCC(=O)NC8=O)C9=O)CC7)C6)CC5)ncn4)c3c2)CC1` (stereo partly shown) [Compound 290, 3-(4-fluoro-1-oxo-5-{1-[(1r,3r)-3-[(1-{6-[5-(1-methylcyclopropoxy)-2H-indazol-3-yl]pyrimidin-4-yl}piperidin-4-yl)oxy]cyclobutyl]piperidin-4-yl}-2,3-dihydro-1H-isoindol-2-yl)piperidine-2,6-dione], the Dmax under setting [4] is at least 70%. Besides, under setting [3], the DC50 was under 0.01 µM. For `CC1(Oc2ccc3[nH]nc(-c4cc(N5CCC(O[C@H]6CCN(CC7CCN(c8ccc9c(c8F)CN(C8CCC(=O)NC8=O)C9=O)CC7)C(C)(C)C6)CC5)ncn4)c3c2)CC1` (stereo partly drawn) [Compound 308, 3-(5-(4-(((S)-2,2-dimethyl-4-((1-(6-(5-(1-methylcyclopropoxy)-1H-indazol-3-yl)pyrimidin-4-yl)piperidin-4-yl)oxy)piperidin-1-yl)methyl)piperidin-1-yl)-4-fluoro-1-oxoisoindolin-2-yl)piperidine-2,6-dione], under setting [4], the greatest degradation seen (Dmax) was 50 to 70%. Further, the DC50 under setting [3] was under 0.01 µM. As to `CC1(Oc2ccc3[nH]nc(-c4cc(N5CCN(C[C@H]6CC[C@H](OC7CCN(c8ccc9c(c8F)CN(C8CCC(=O)NC8=O)C9=O)CC7)CC6)C(C)(C)C5)ncn4)c3c2)CC1` (stereo partly shown) [Compound 381, 3-[4-fluoro-1-oxo-5-(4-{[(1r,4r)-4-[(2,2-dimethyl-4-{6-[5-(1-methylcyclopropoxy)-1H-indazol-3-yl]pyrimidin-4-yl}piperazin-1-yl)methyl]cyclohexyl]oxy}piperidin-1-yl)-2,3-dihydro-1H-isoindol-2-yl]piperidine-2,6-dione], the DC50 under setting [1] was in the range of 0.01 to 0.05 µM. Moreover, under setting [2], the Dmax was under 50%.

In the case of `CC1(Oc2ccc3n[nH]c(-c4cc(N5CCC(CN6CC(F)(CN7CCN(c8ccc9c(c8F)CN(C8CCC(=O)NC8=O)C9=O)CC7)C6)CC5)ncn4)c3c2)CC1` (stereo not shown) [Compound 301, 3-{4-fluoro-5-[4-({3-fluoro-1-[(1-{6-[5-(1-methylcyclopropoxy)-2H-indazol-3-yl]pyrimidin-4-yl}piperidin-4-yl)methyl]azetidin-3-yl}methyl)piperazin-1-yl]-1-oxo-2,3-dihydro-1H-isoindol-2-yl}piperidine-2,6-dione], the Dmax under setting [4] was at least 70%. For the same compound, the DC50 under setting [3] is under 0.01 µM. The matching figures for `CC1(Oc2ccc3n[nH]c(-c4cc(N5CCC(O[C@H]6C[C@H](N7CC[C@@H](c8ccc9c(c8F)CN(C8CCC(=O)NC8=O)C9=O)[C@@H](F)C7)C6)CC5)ncn4)c3c2)CC1` (stereo partly shown) [Compound 297, 3-{4-fluoro-5-[(3r,4s)-3-fluoro-1-[(1r,3r)-3-[(1-{6-[5-(1-methylcyclopropoxy)-2H-indazol-3-yl]pyrimidin-4-yl}piperidin-4-yl)oxy]cyclobutyl]piperidin-4-yl]-1-oxo-2,3-dihydro-1H-isoindol-2-yl}piperidine-2,6-dione]: 50 to 70% and under 0.01 µM. `CC1(Oc2ccc3[nH]nc(-c4cc(N5CCN(C[C@H]6CC[C@H](OC7CCN(c8c(F)cc9c(c8F)CN(C8CCC(=O)NC8=O)C9=O)CC7)CC6)CC5)ncn4)c3c2)CC1` (stereo partly shown) [Compound 286, 3-[4,6-difluoro-1-oxo-5-(4-{[(1r,4r)-4-[(4-{6-[5-(1-methylcyclopropoxy)-1H-indazol-3-yl]pyrimidin-4-yl}piperazin-1-yl)methyl]cyclohexyl]oxy}piperidin-1-yl)-2,3-dihydro-1H-isoindol-2-yl]piperidine-2,6-dione]: the maximal degradation (Dmax) under setting [4] is at least 70%. Besides, the half-maximal degradation concentration (DC50) under setting [3] was 0.01 to 0.05 µM. Regarding `COc1c(N2CCC(CN3CCN(CC4CCN(c5cc(-c6n[nH]c7ccc(OC8(C)CC8)cc67)ncn5)CC4)CC3)CC2)ccc2c1CN(C1CCC(=O)NC1=O)C2=O` (stereo not shown) [Compound 211, 3-[4-methoxy-5-[4-[[4-[[1-[6-[5-(1-methylcyclopropoxy)-1H-indazol-3-yl]pyrimidin-4-yl]-4-piperidyl]methyl]piperazin-1-yl]methyl]-1-piperidyl]-1-oxo-isoindolin-2-yl]piperidine-2,6-dione], the DC50 under setting [1] is under 0.01 µM. Under setting [2], the Dmax is at least 70%. As for `C[C@H]1CN(CC2CCN(c3cc(-c4n[nH]c5cnc(OC6(C)CC6)cc45)ncn3)CC2)CCN1CC1CCN(c2ccc3c(c2F)CN(C2CCC(=O)NC2=O)C3=O)CC1` (stereo partly drawn) [Compound 276, 3-[4-fluoro-5-(4-{[(2S)-2-methyl-4-[(1-{6-[5-(1-methylcyclopropoxy)-1H-pyrazolo[3,4-c]pyridin-3-yl]pyrimidin-4-yl}piperidin-4-yl)methyl]piperazin-1-yl]methyl}piperidin-1-yl)-1-oxo-2,3-dihydro-1H-isoindol-2-yl]piperidine-2,6-dione], under setting [4], the Dmax was 50 to 70%. Further, under setting [3], the DC50 is under 0.01 µM. Take `CC1(Oc2ccc3[nH]nc(-c4cc(N5CCC(OCCN6CCC7(CN(c8ccc9c(c8F)CN(C8CCC(=O)NC8=O)C9=O)C7)C(F)(F)C6)CC5)ncn4)c3c2)CC1` (stereo not shown) [Compound 362, 3-[5-(5,5-difluoro-7-{2-[(1-{6-[5-(1-methylcyclopropoxy)-1H-indazol-3-yl]pyrimidin-4-yl}piperidin-4-yl)oxy]ethyl}-2,7-diazaspiro[3.5]nonan-2-yl)-4-fluoro-1-oxo-2,3-dihydro-1H-isoindol-2-yl]piperidine-2,6-dione]: the DC50 under setting [1] was under 0.01 µM. Also, the Dmax under setting [2] is 50 to 70%. The matching figures for `CC1(Oc2ccc3[nH]nc(-c4cc(N5CCC(CN6CCN(CC7CCN(c8ccc9c(c8F)CN(C8CCC(=O)NC8=O)C9=O)CC7)CC6(C)C)CC5)ncn4)c3c2)CC1` (stereo not shown) [Compound 224, 3-[5-[4-[[3,3-dimethyl-4-[[1-[6-[5-(1-methylcyclopropoxy)-1H-indazol-3-yl]pyrimidin-4-yl]-4-piperidyl]methyl]piperazin-1-yl]methyl]-1-piperidyl]-4-fluoro-1-oxo-isoindolin-2-yl]piperidine-2,6-dione]: under 0.01 µM and 50 to 70%.

As a reminder, the DC50 is the concentration at which degradation of the target reaches its halfway point. By Dmax is commonly meant the largest share of the target that was removed.
